# Test results published in PMC3179492, “HIV Protease Inhibitors Act as Competitive Inhibitors of the Cytoplasmic Glucose Binding Site of GLUTs with Differing Affinities for GLUT1 and GLUT4” (PLoS ONE, 2011).
# Where two headings read alike, the source gives them in different places.
# What was measured:
# primary rat adipocytes [1] = settings: read-out: KI from inhibition of zero trans glucose uptake; cited from earlier work
# GLUT1 = biological target: T1, GLUT1 (Mus musculus, UniProt P17809); test: ATB-BMPA photolabeling of low-density microsomes (LDM) from 3T3-L1 adipocytes, GLUT1; format: binding
# T1 construct: LDM contains small intracellular vesicles of GLUT4 and GLUT1; endogenous in cells; host or cells: low-density microsome fraction of differentiated 3T3-L1 adipocytes
# T1 sequence (P17809 1-492): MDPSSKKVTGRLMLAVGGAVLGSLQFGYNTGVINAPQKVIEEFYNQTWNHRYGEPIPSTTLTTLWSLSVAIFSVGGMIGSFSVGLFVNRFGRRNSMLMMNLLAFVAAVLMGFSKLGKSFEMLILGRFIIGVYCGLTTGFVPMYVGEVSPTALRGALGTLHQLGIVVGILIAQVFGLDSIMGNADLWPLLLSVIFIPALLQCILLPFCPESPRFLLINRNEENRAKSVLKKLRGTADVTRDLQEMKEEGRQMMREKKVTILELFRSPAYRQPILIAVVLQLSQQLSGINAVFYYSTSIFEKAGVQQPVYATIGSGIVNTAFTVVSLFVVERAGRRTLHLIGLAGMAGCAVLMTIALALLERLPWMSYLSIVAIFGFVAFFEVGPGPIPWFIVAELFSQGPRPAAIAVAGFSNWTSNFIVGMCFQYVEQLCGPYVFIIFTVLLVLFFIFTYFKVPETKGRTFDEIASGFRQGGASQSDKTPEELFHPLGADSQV
# Procedure: (§1) 3T3-L1 fibroblasts were grown to confluency and 48 h later subjected to differentiation as previously described. 3T3-L1 adipocytes were used 10 – 14 days after differentiation. Six culture dishes (15 cm) of adipocytes were serum-starved overnight, washed 3 times with ice-cold HES buffer (50 mM Hepes, pH 7.4, 255 mM sucrose, and 1 mM EDTA) containing Roche complete protease inhibitors (Roche Applied Science, Mannheim, Germany), scraped into 5 ml of the same buffer, and then homogenized with either a ball-bearing homogenizer or with a Potter-Elvehjem tissue grinder and a PTFE pestle. The low-density microsome (LDM) fraction was obtained by differential centrifugation as described previously. LDM were resuspended in phosphate buffer (25 mM phosphate, pH 7.4, 100 mM NaCl, 5% glycerol) containing complete Roche protease inhibitors.
# (§2) Inhibitors were added to LDM (200 µg protein unless otherwise stated) for 10 min at room temperature. Samples (final volume 110 µl) were then incubated for 10 min at room temperature in the dark with biotinylated ATB-BMPA (50 µM final concentration) and then placed on ice prior to UV irradiation. Reactions were transferred to a 24-well low protein retention culture dish (Costar, Corning, NY) and then irradiated at room temperature 5 cm from a Green Spot UV lamp for 1 min (30 sec of light, followed by 30 sec of darkness, followed by 30 sec of light).
# (§3) 20 µl of BSA (1.5 mg/ml final concentration) was added to the UV irradiated samples in a siliconized eppendorph tube. Excess biotinylated ATB-BMPA label was removed using a 0.5 ml Zeba Spin Desalting Column (Pierce). Biotinylated proteins were isolated essentially as described previously. Membranes were solubilized for 30 min at 4°C with 2% Thesit detergent buffer containing protease inhibitors. After centrifugation at 16,000 x g for 10 min, the supernatants were incubated overnight at 4°C with 50 µl of high capacity Streptavidin Agarose resin (Pierce). Precipitates were washed 3 times with 1% Thesit detergent buffer, twice with 0.1% Thesit detergent buffer, and once with phosphate buffer. Biotinylated proteins were eluted at 95 – 100°C for 20 min in 60 µl of 2X Laemmli Sample Buffer containing 40 mM dithiothreitol. Half of the eluted proteins were subjected to SDS-PAGE and transferred to nitrocellulose. Immunoblot analysis was carried out using GLUT4 and GLUT1 specific antibodies and quantified using an Odyssey Infrared Imaging System (LI-COR Biosciences, Lincoln, NE).
# GLUT4 [2] = biological target: T2, GLUT4 (Mus musculus, UniProt P14142); test: ATB-BMPA photolabeling of low-density microsomes (LDM) from 3T3-L1 adipocytes, GLUT4; format: binding; parameters: LDM contains small intracellular vesicles of GLUT4 and GLUT1; endogenous in cells; host or cells: low-density microsome fraction of differentiated 3T3-L1 adipocytes
# T2 sequence (P14142 1-509): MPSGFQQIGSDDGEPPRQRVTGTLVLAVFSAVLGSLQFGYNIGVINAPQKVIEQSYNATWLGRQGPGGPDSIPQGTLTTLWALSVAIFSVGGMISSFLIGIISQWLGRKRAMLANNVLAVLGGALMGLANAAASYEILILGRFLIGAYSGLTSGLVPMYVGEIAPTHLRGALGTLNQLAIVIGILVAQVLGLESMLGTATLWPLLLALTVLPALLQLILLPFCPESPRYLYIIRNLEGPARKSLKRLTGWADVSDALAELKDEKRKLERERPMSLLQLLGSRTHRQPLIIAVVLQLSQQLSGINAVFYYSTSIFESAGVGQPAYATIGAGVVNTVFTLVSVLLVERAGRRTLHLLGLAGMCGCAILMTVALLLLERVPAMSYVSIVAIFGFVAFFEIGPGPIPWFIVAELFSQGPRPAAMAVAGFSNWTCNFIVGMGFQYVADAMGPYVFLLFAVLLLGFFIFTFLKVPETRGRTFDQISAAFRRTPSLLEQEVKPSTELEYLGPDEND
# Procedure: as §1, §2, §3
# GLUT4 [3] = biological target: T2, GLUT4; test: Kinetic (Scatchard) analysis of indinavir effect on ATB-BMPA labeling of GLUT4 in LDM; format: binding; parameters: LDM contains small intracellular vesicles of GLUT4 and GLUT1; endogenous in cells; host or cells: low-density microsome fraction of differentiated 3T3-L1 adipocytes; settings: from Kd(apparent) = Kd (1 + [I]/KI), LDM 50 µg; read-out: KI, competitive inhibition of ATB-BMPA binding to the cytoplasmic glucose binding site of GLUT4
# Procedure: ATB-BMPA (50, 100, 200, 300 µM final concentration) was then added for an additional 10 min (5 min at room temperature, 5 min at 4 °C). Samples (110 µl final volume) were UV irradiated as described above. After removal of excess label with a desalting spin column, GLUT4 protein was immunoprecipitated from Thesit-solubilized LDM using a GLUT4 C-terminal directed antibody. ATB-BMPA-bound GLUT4 was analyzed by immunoblot analysis using an IR Dye 800 CW fluorescent streptavidin (LI-COR) and quantified with an Odyssey Infrared Imaging System. Identical samples that were not UV irradiated were used to correct for non-specific binding. The free ATB-BMPA concentration was assumed to be equal to the total ATB-BMPA concentration since the label concentration far exceeded the GLUT4 concentration. The data was expressed as Scatchard plots, bound/free versus bound. The Bmax and Kd values were determined from the horizontal intercept and the negative […], respectively.
# primary rat adipocytes [4] = test: 2-Deoxyglucose uptake in insulin-stimulated primary rat adipocytes (predominantly GLUT4); format: cell-based; settings: for Effect on 2-deoxyglucose uptake (GLUT4 transporter activity): primary rat adipocytes
# Procedure: Adipocytes from epididymal fat pads were prepared from male Wistar rats weighing 150 – 200 g (from Charles River Laboratories, Inc., Wilmington, MA) as previously described. Adipocytes were stimulated with 1 µM insulin for 30 min at 37°C prior to use. 2-Deoxyglucose uptakes were performed by adding 80 µl of the cell suspension to 80 µl of Krebs-Ringer bicarbonate Hepes buffer (KRB) (120 mM NaCl, 4 mM KH2PO4, 1 mM MgSO4, 1 mM CaCl2, 10 mM NaHCO3, 200 nM adenosine, 30 mM Hepes, pH 7.4) containing 3% bovine serum albumin. HIV protease inhibitors / vehicle were added 5 min prior to the initiation of the reaction. Uptakes were initiated with the addition of 20 µl of [^3H]2-deoxyglucose (final 2-deoxyglucose concentration 50 µM; 0.5 µCi/assay). After 1 min at 37 °C, reactions were quenched with cytochalasin B to a final concentration of 0.4 mM. The cells were separated by spinning the reaction through dinonylphthalate as previously described and the intracellular radioactivity was quantified by liquid scintillation counting. Non-specific uptake measured in the presence of 20 µM cytochalasin B (Sigma) was subtracted from the experimental values.
# GLUT4 [5] = biological target: T2, GLUT4; settings: Xenopus oocytes; read-out: Binding affinity (KI) for GLUT4 in the oocyte system; cited from earlier work
# 3T3-L1 fibroblasts = test: 2-Deoxyglucose uptake in 3T3-L1 fibroblasts (express only GLUT1); format: cell-based; settings: for Effect on 2-deoxyglucose uptake (GLUT1 transporter activity): 3T3-L1 fibroblasts
# Procedure: 3T3-L1 fibroblasts were grown to confluency in Dulbecco's modified Eagle's medium (DMEM) supplemented with 10% calf serum. The uptake of [^3H]2-Deoxyglucose (50 µM) was measured in Krebs-Ringer phosphate buffer for 6 min at 37°C as previously described. HIV protease inhibitors were added 6 min prior to the start of the reaction. Non-specific uptake measured in the presence of 20 µM cytochalasin B (Sigma) was subtracted from the experimental values.
# [6] = 10 µM PI (therapeutic concentration)
"IC50 (GLUT1; LDM 200 µg, biotinylated ATB-BMPA 50 µM, mean ± S.E., n = 3, read-out: Half-maximal inhibition (IC50) of ATB-BMPA binding to GLUT1) [µM]","IC50 (GLUT4 [2]; LDM 200 µg, biotinylated ATB-BMPA 50 µM, mean ± S.E., n = 3, read-out: Half-maximal inhibition (IC50) of ATB-BMPA binding to GLUT4) [µM]",Ki (GLUT4 [3]) [µM],"IC50 (primary rat adipocytes [4]; Rattus norvegicus, Adipocyte, insulin-stimulated, 50 µM 2-deoxyglucose, read-out: IC50 for inhibition of 2-deoxyglucose uptake in primary rat adipocytes) [µM]",Effect on ATB-BMPA labeling of GLUT1 (GLUT1; 50 µM PI),Effect on ATB-BMPA labeling of GLUT4 (GLUT4 [2]; 50 µM PI),Effect on ATB-BMPA labeling of GLUT1 (GLUT1; [6]),Effect on ATB-BMPA labeling of GLUT4 (GLUT4 [2]; [6]),Compound,Ki (primary rat adipocytes [1]) [µM],Effect on 2-deoxyglucose uptake (GLUT4 transporter activity) (primary rat adipocytes [4]; 10 µM PI),Effect on 2-deoxyglucose uptake (GLUT4 transporter activity) (primary rat adipocytes [4]; 50 µM PI),Ki (GLUT4 [5]) [µM],Effect on 2-deoxyglucose uptake (GLUT1 transporter activity) (3T3-L1 fibroblasts; 10 µM PI),Effect on 2-deoxyglucose uptake (GLUT1 transporter activity) (3T3-L1 fibroblasts; 50 µM PI),"IC50 (3T3-L1 fibroblasts; Mus musculus, 3T3-L1, basal, 50 µM 2-deoxyglucose, read-out: IC50 for inhibition of 2-deoxyglucose uptake in 3T3-L1 fibroblasts) [µM]"
178 ± 43,20.7 ± 3.9,8.2,11,–,–,–,–,"CC(C)(C)NC(=O)[C@@H]1CN(Cc2cccnc2)CCN1C[C@@H](O)C[C@@H](Cc1ccccc1)C(=O)N[C@H]1c2ccccc2C[C@H]1O [Indinavir, indinavir]",15,reduced,affected,50,unaffected,affected but a lesser extent than GLUT4,241
–,–,–,–,affected,affected,–,–,"CC(C)c1nc(CN(C)C(=O)N[C@H](C(=O)N[C@@H](Cc2ccccc2)C[C@H](O)[C@H](Cc2ccccc2)NC(=O)OCc2cncs2)C(C)C)cs1 [Ritonavir, ritonavir]",–,–,affected,–,–,affected,–
–,–,–,–,no effect,no effect,no effect,no effect,CCC[C@@]1(CCc2ccccc2)CC(O)=C([C@H](CC)c2cccc(NS(=O)(=O)c3ccc(C(F)(F)F)cn3)c2)C(=O)O1 [Tipranavir],–,no effect,no effect,–,no effect,no effect,–
